Source: the supplement of paper PMC13380429

What was measured:
Settings in all cases: 72 h
Vero E6 [1] = assay: drug sensitivity score (DSS) for viability; higher = more toxic; extreme values may be limits of the assay
Caco-2 [2] = assay: as above
HepG2 [3] = assay: as above
Calu-3 [4] = assay: as above
U2OS [5] = assay: as above
Vero E6 [6] = assay: cell viability relative to DMSO; higher = less toxic
Caco-2 [7] = assay: as above
HepG2 [8] = assay: as above
Calu-3 [9] = assay: as above
U2OS [10] = assay: as above
Vero E6 [11] = assay: relative viability EC50 (midpoint between 100% and the lowest measured viability); higher = less toxic
Caco-2 [12] = assay: as above
HepG2 [13] = assay: as above
Calu-3 [14] = assay: as above
U2OS [15] = assay: as above

Structure (SMILES) | drug sensitivity score (Vero E6 [1]) | drug sensitivity score (Caco-2 [2]) | drug sensitivity score (HepG2 [3]) | drug sensitivity score (Calu-3 [4]) | drug sensitivity score (U2OS [5]) | cell viability (Vero E6 [6]; 1 nM) [%] | cell viability (Vero E6 [6]; 10 nM) [%] | cell viability (Vero E6 [6]; 100 nM) [%] | cell viability (Vero E6 [6]; 1000 nM) [%] | cell viability (Vero E6 [6]; 10000 nM) [%] | cell viability (Caco-2 [7]; 1 nM) [%] | cell viability (Caco-2 [7]; 10 nM) [%] | cell viability (Caco-2 [7]; 100 nM) [%] | cell viability (Caco-2 [7]; 1000 nM) [%] | cell viability (Caco-2 [7]; 10000 nM) [%] | cell viability (HepG2 [8]; 1 nM) [%] | cell viability (HepG2 [8]; 10 nM) [%] | cell viability (HepG2 [8]; 100 nM) [%] | cell viability (HepG2 [8]; 1000 nM) [%] | cell viability (HepG2 [8]; 10000 nM) [%] | cell viability (Calu-3 [9]; 1 nM) [%] | cell viability (Calu-3 [9]; 10 nM) [%] | cell viability (Calu-3 [9]; 100 nM) [%] | cell viability (Calu-3 [9]; 1000 nM) [%] | cell viability (Calu-3 [9]; 10000 nM) [%] | cell viability (U2OS [10]; 1 nM) [%] | cell viability (U2OS [10]; 10 nM) [%] | cell viability (U2OS [10]; 100 nM) [%] | cell viability (U2OS [10]; 1000 nM) [%] | cell viability (U2OS [10]; 10000 nM) [%] | relative viability EC50 (Vero E6 [11]) [µM] | relative viability EC50 (Caco-2 [12]) [µM] | relative viability EC50 (HepG2 [13]) [µM] | relative viability EC50 (Calu-3 [14]) [µM] | relative viability EC50 (U2OS [15]) [µM]
CC(=O)OCC1=C(C(=O)O)N2C(=O)[C@@H](N)[C@H]2SC1 [7-aminocephalosporanic-acid] | 0 | 0 | 0 | 0 | 0 | 97.5 | 100 | 96.4 | 95.5 | 98.8 | 101 | 106 | 102 | 98.7 | 100 | 105 | 117 | 109 | 115 | 99.7 | 116 | 102 | 97.5 | 99.5 | 115 | 101 | 99 | 100 | 97.8 | 101 | > 10 | > 10 | > 10 | > 10 | > 10
O=C(O)c1c2ccccc2cc2ccccc12 [9-anthracenecarboxylic-acid] | 0 | 0 | 0 | 0 | 0 | 98.4 | 97.1 | 98 | 94.7 | 103 | 93.1 | 95.8 | 95 | 100 | 105 | 101 | 90.5 | 102 | 104 | 102 | 97.1 | 97.9 | 99.4 | 101 | 96 | 100 | 100 | 101 | 101 | 103 | > 10 | > 10 | > 10 | > 10 | > 10
O=C(CCCCCCNC(=O)c1cnc(N(c2ccccc2)c2ccccc2)nc1)NO [ACY-1215] | 3.2 | 4.9 | 7 | 6 | 5.6 | 92.9 | 100 | 94.2 | 96.9 | 47.7 | 108 | 92.8 | 106 | 94.3 | 27.2 | 96.5 | 108 | 87.3 | 86 | 16.2 | 107 | 93.5 | 100 | 82 | 38.6 | 102 | 101 | 107 | 88.6 | 33.3 | 2.7 | 2.53 | 1.89 | 1.42 | 1.87
CCN1CCN(Cc2ccc(-c3cc4c(N[C@H](C)c5ccccc5)ncnc4[nH]3)cc2)CC1 [AEE788] | 10.9 | 2.4 | 0.2 | 13.7 | 5.1 | 97.6 | 94.7 | 82.2 | 54.4 | 27.1 | 89.5 | 91.9 | 94.8 | 81.9 | 78 | 109 | 95.4 | 98.1 | 110 | 82.5 | 100 | 103 | 84.9 | 38.1 | 3.7 | 98.7 | 95.7 | 97.8 | 86.7 | 44.7 | 0.435 | > 10 | > 10 | 0.548 | 1.58
Cc1c(CN(C)C(=O)/C=C/c2cnc3c(c2)CCC(=O)N3)oc2ccccc12 [AFN-1252] | 0 | 0 | 0 | 0 | 0 | 94.2 | 87.9 | 93.6 | 91.3 | 97.7 | 95 | 93.1 | 99 | 101 | 97.1 | 110 | 92.6 | 106 | 90.2 | 110 | 103 | 98.5 | 102 | 108 | 98.1 | 97.9 | 101 | 98.5 | 101 | 102 | > 10 | > 10 | > 10 | > 10 | > 10
Cc1cc(OCCN2CCOCC2)nn1-c1ccc2ccccc2c1 [API-001] | 0 | 0 | 0 | 0 | 0 | 96.3 | 96 | 91.9 | 94.8 | 103 | 93.2 | 91.8 | 96.4 | 94.1 | 92 | 102 | 111 | 89.9 | 102 | 103 | 98.5 | 83.4 | 107 | 115 | 96.7 | 98.2 | 98.5 | 102 | 101 | 102 | > 10 | > 10 | > 10 | > 10 | > 10
COc1ccccc1N1CCN(CCN2C(=O)c3ccccc3C(C)(C)C2=O)CC1 [ARC-239] | 0 | 0 | 0 | 0 | 0 | 104 | 95.2 | 102 | 102 | 103 | 102 | 101 | 91.3 | 98.2 | 92.6 | 107 | 95 | 106 | 102 | 97.3 | 105 | 104 | 100 | 102 | 95 | 96.8 | 95.3 | 97.9 | 101 | 95.9 | > 10 | > 10 | > 10 | > 10 | > 10
O=C(N[C@H]1CCN(C(=O)c2cc(C(F)(F)F)cc(C(F)(F)F)c2)[C@H](Cc2ccc(Cl)cc2)C1)c1ccnc2ccccc12 [AV-608] | 0 | 1.3 | 0 | 0 | 0 | 96 | 100 | 101 | 97.5 | 95.7 | 89.3 | 95 | 96.1 | 97.4 | 75.5 | 96.2 | 103 | 98.9 | 98.3 | 97.3 | 115 | 98.6 | 101 | 94.2 | 99.4 | 101 | 98.8 | 93.5 | 100 | 95.5 | > 10 | > 10 | > 10 | > 10 | > 10
C[C@@H]1COCCN1c1cc(C2(S(C)(=O)=O)CC2)nc(-c2cccc3[nH]ccc23)n1 [AZ20] | 5.6 | 6.8 | 7.8 | 6 | 5.9 | 102 | 98.2 | 98.5 | 85.4 | 40 | 88.1 | 96.3 | 89.5 | 84.1 | 23.1 | 110 | 110 | 95.9 | 65.6 | 31.8 | 89.4 | 97 | 91.8 | 82.3 | 34.6 | 97.4 | 101 | 95.9 | 94.3 | 9.3 | 1.57 | 1.71 | 0.973 | 1.57 | 2.66
Cc1nn(C)c2c1C(c1ccc(C(F)(F)F)cc1)C(C#N)=C(N)O2 (stereo not given) [BQU57] | 0 | 0 | 0 | 0 | 0 | 104 | 104 | 103 | 101 | 99.7 | 94.3 | 93.5 | 95 | 97.1 | 89.2 | 109 | 97.9 | 103 | 99 | 102 | 98.7 | 104 | 98.7 | 108 | 104 | 98 | 101 | 98.8 | 100 | 102 | > 10 | > 10 | > 10 | > 10 | > 10
O=[N+]([O-])c1cc(Cl)ccc1S(=O)(=O)c1ccccc1 [BTB1] | 0 | 0 | 0 | 0 | 0 | 97 | 94.4 | 93.9 | 97.9 | 101 | 95.8 | 90.2 | 97.5 | 98.6 | 100 | 99.2 | 103 | 82.7 | 88.1 | 108 | 97.1 | 98.2 | 107 | 103 | 115 | 98.5 | 95.4 | 102 | 103 | 102 | > 10 | > 10 | > 10 | > 10 | > 10
CC(N)Cc1c[nH]c2ccc(OCc3cccs3)cc12 (stereo not given) [BW-723C86] | 0 | 0 | 1 | 0.7 | 0 | 96 | 94.9 | 95.1 | 96.1 | 89.1 | 99.8 | 97.7 | 93 | 94.8 | 98.8 | 102 | 107 | 96.8 | 95.5 | 81 | 109 | 95.6 | 98.6 | 104 | 76.5 | 102 | 98.2 | 99 | 98.2 | 96.9 | > 10 | > 10 | > 10 | > 10 | > 10
CCS(=O)(=O)N1CCC([C@@H](C)n2c(C)c(C(=O)NCc3c(OC)cc(C)[nH]c3=O)c3ccccc32)CC1 [CPI-169] | 0 | 0 | 0 | 0 | 0 | 100 | 96.7 | 96.9 | 99.7 | 103 | 95.8 | 94.7 | 101 | 100 | 95 | 104 | 103 | 104 | 94.3 | 101 | 97.3 | 102 | 98.7 | 94.3 | 97.4 | 92.1 | 101 | 99.3 | 105 | 102 | > 10 | > 10 | > 10 | > 10 | > 10
O=C(O)[C@H](Cc1ccc(Nc2nccc3ccncc23)cc1)NC1=C(Br)C(=O)C12CCCCC2 [CT-7758] | 0 | 0 | 0 | 0 | 0 | 97.6 | 104 | 93.3 | 98.2 | 93.4 | 97.5 | 100 | 88.9 | 105 | 102 | 99.3 | 95.4 | 105 | 101 | 101 | 108 | 105 | 95.3 | 89.6 | 104 | 101 | 104 | 96.6 | 98.6 | 96.5 | > 10 | > 10 | > 10 | > 10 | > 10
